pIC50: −log10 of the molar value. Where a name gives a salt, the structure may show the parent alone.
What follows are compounds tested against SHP2 (Homo sapiens (Human), UniProt Q06124) (assay: SHP2 Biochemical Assay (DiFMUP conversion, pIRS1 activating peptide)). Settings: not given.
SHP2, sequence (Q06124 whole entry): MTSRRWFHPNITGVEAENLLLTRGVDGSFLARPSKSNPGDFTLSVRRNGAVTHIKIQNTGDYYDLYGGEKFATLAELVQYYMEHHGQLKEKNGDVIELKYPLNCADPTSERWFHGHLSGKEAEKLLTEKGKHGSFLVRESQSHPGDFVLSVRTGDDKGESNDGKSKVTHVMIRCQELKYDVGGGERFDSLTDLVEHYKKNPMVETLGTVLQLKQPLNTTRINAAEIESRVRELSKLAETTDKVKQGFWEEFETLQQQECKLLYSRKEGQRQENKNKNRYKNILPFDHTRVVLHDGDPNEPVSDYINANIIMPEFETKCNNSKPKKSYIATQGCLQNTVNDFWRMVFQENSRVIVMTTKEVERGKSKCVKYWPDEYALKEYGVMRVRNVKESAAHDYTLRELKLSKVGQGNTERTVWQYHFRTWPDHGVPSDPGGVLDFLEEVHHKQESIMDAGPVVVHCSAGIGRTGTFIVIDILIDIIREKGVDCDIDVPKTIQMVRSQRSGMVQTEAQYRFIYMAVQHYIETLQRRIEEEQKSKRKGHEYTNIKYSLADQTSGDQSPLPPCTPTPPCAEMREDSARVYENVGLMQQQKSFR

Q: With `CN(C)c1cnc2ccc(-c3n[nH]c4nc(N5[C@@H]6CC[C@H]5C[C@@](C)(N)C6)c(CO)nc34)c(Cl)c2n1` [Example 131, {6-[endo-3-amino-3-methyl-8-azabicyclo[3.2.1]octan-8-yl]-3-[5-chloro-3-(dimethylamino)quinoxalin-6-yl]-1H-pyrazolo[3,4-b]pyrazin-5-yl}methanol] as the compound, how does the pIC50 read?
A: The pIC50 was 8.06.

Same assay, conditions: DiFMUP substrate, 0.25 μM pIRS1 peptide, 30 min pre-incubation; average where more than one data point; read-out: SHP2 (IC50)

Q: `COc1ccc2ccc(-c3c[nH]c4nc(N5[C@@H]6CC[C@H]5C[C@@H](N)C6)cnc34)c(Cl)c2n1` [Example 27, endo-8-[7-(8-chloro-2-methoxyquinolin-7-yl)-5H-pyrrolo[2,3-b]pyrazin-3-yl]-8-azabicyclo[3.2.1]octan-3-amine, hydrochloride salt] was tested. Which pIC50 did it give?
A: The pIC50 was 7.77.

Q: With `COc1cc2c(Cl)c(-c3c[nH]c4nc(N5[C@@H]6CC[C@H]5C[C@@H](N)C6)cnc34)ccc2nc1C` [Example 42, endo-8-[7-(5-chloro-3-methoxy-2-methylquinolin-6-yl)-5H-pyrrolo[2,3-b]pyrazin-3-yl]-8-azabicyclo[3.2.1]octan-3-amine] as the compound, how does the pIC50 read?
A: The pIC50 was 7.77.

Q: With `Cc1nc2c(-c3ccc4nc(CO)sc4c3Cl)n[nH]c2nc1N1[C@H]2CC[C@@H]1[C@@H](F)[C@@H](N)C2` [Example 132, (6-{6-[(1R,2S,3S,5S)-3-amino-2-fluoro-8-azabicyclo[3.2.1]octan-8-yl]-5-methyl-1H-pyrazolo[3,4-b]pyrazin-3-yl}-7-chloro-1,3-benzothiazol-2-yl)methanol, hydrochloride] as the compound, how does the pIC50 read?
A: The pIC50 was 7.96.

Q: `CN(C)c1cnc2ccc(-c3n[nH]c4nc(N5[C@@H]6CC[C@H]5C[C@@H](N)C6)c(CO)nc34)c(Cl)c2n1` [Example 133, {6-[endo-3-amino-8-azabicyclo[3.2.1]octan-8-yl]-3-[5-chloro-3-(dimethylamino)quinoxalin-6-yl]-1H-pyrazolo[3,4-b]pyrazin-5-yl}methanol] was tested. Which pIC50 did it give?
A: Its pIC50 is 8.22.

Q: `COc1cnc2ccc(-c3n[nH]c4nc(N5[C@@H]6CC[C@H]5C[C@@](C)(N)C6)c(CO)nc34)c(Cl)c2n1` [Example 134, {6-[endo-3-amino-3-methyl-8-azabicyclo[3.2.1]octan-8-yl]-3-(5-chloro-3-methoxyquinoxalin-6-yl)-1H-pyrazolo[3,4-b]pyrazin-5-yl}methanol] was tested. Which pIC50 did it give?
A: The pIC50 was 8.00.

Q: `COc1cnc2ccc(-c3n[nH]c4nc(N5[C@@H]6CC[C@H]5C[C@@H](N)C6)c(C)nc34)c(Cl)c2n1` [Example 135, endo-8-[3-(5-chloro-3-methoxyquinoxalin-6-yl)-5-methyl-1H-pyrazolo[3,4-b]pyrazin-6-yl]-8-azabicyclo[3.2.1]octan-3-amine] was tested. Which pIC50 did it give?
A: Its pIC50 is 7.80.

Q: How did the pIC50 turn out when `Cc1nc2c(-c3ccc4ncc(N(C)C)nc4c3Cl)n[nH]c2nc1N1[C@@H]2CC[C@H]1C[C@@H](N)C2` [Example 136, 7-{6-[endo-3-amino-8-azabicyclo[3.2.1]octan-8-yl]-5-methyl-1H-pyrazolo[3,4-b]pyrazin-3-yl}-8-chloro-N,N-dimethylquinoxalin-2-amine] was run?
A: Its pIC50 is 8.05.

Q: How did the pIC50 turn out when `Cc1nc2c(-c3ccc4ncc(N(C)C)nc4c3Cl)n[nH]c2nc1N1C2CCC1CNC2` [Example 137, 8-Chloro-7-(6-{3,8-diazabicyclo[3.2.1]octan-8-yl}-5-methyl-1H-pyrazolo[3,4-b]pyrazin-3-yl)-N,N-dimethylquinoxalin-2-amine] was run?
A: The pIC50 was 7.68.

Q: With `CCOc1cnc2ccc(-c3n[nH]c4nc(N5[C@H]6CC[C@@H]5[C@@H](F)[C@@H](N)C6)c(CO)nc34)c(Cl)c2n1` [Example 138, {6-[(1R,2S,3S,5S)-3-amino-2-fluoro-8-azabicyclo[3.2.1]octan-8-yl]-3-(5-chloro-3-ethoxyquinoxalin-6-yl)-1H-pyrazolo[3,4-b]pyrazin-5-yl}methanol] as the compound, how does the pIC50 read?
A: The pIC50 was 7.89.

Q: With `CCOc1cnc2ccc(-c3n[nH]c4nc(N5[C@H]6CC[C@@H]5[C@@H](F)[C@@H](N)C6)c(C)nc34)c(Cl)c2n1` [Example 139, (1R,2S,3S,5S)-8-[3-(5-chloro-3-ethoxyquinoxalin-6-yl)-5-methyl-1H-pyrazolo[3,4-b]pyrazin-6-yl]-2-fluoro-8-azabicyclo[3.2.1]octan-3-amine] as the compound, how does the pIC50 read?
A: Its pIC50 is 7.66.

Q: `Cc1nc2ccc(-c3n[nH]c4nc(N5[C@@H]6CC[C@H]5[C@@H](F)[C@@H](N)C6)c(CO)nc34)c(Cl)c2s1` [Example 140, {6-[(1S,2S,3S,5R)-3-amino-2-fluoro-8-azabicyclo[3.2.1]octan-8-yl]-3-(7-chloro-2-methyl-1,3-benzothiazol-6-yl)-1H-pyrazolo[3,4-b]pyrazin-5-yl}methanol] was tested. Which pIC50 did it give?
A: The pIC50 was 8.11.

Q: `Cc1c(-c2n[nH]c3nc(N4[C@@H]5CC[C@H]4[C@@H](F)[C@@H](N)C5)c(CO)nc23)ccc2nn(C)c(Cl)c12` [Example 141, {6-[(1S,2S,3S,5R)-3-amino-2-fluoro-8-azabicyclo[3.2.1]octan-8-yl]-3-(3-chloro-2,4-dimethyl-2H-indazol-5-yl)-1H-pyrazolo[3,4-b]pyrazin-5-yl}methanol] was tested. Which pIC50 did it give?
A: The pIC50 was 7.89.

Q: With `Cc1c(-c2n[nH]c3nc(N4[C@@H]5CC[C@H]4C[C@@H](N)C5)c(CO)nc23)ccc2nn(C)c(Cl)c12` [Example 142, {6-[endo-3-amino-8-azabicyclo[3.2.1]octan-8-yl]-3-(3-chloro-2,4-dimethyl-2H-indazol-5-yl)-1H-pyrazolo[3,4-b]pyrazin-5-yl}methanol] as the compound, how does the pIC50 read?
A: Its pIC50 is 7.89.

Q: `COCc1nc2ccc(-c3n[nH]c4nc(N5[C@H]6CC[C@@H]5[C@@H](F)[C@@H](N)C6)c(CO)nc34)c(Cl)c2s1` [Example 143, {6-[(1R,2S,3S,5S)-3-amino-2-fluoro-8-azabicyclo[3.2.1]octan-8-yl]-3-[7-chloro-2-(methoxymethyl)-1,3-benzothiazol-6-yl]-1H-pyrazolo[3,4-b]pyrazin-5-yl}methanol] was tested. Which pIC50 did it give?
A: The pIC50 was 8.21.

Q: With `CC(C)Oc1cnc2ccc(-c3n[nH]c4nc(N5[C@H]6CC[C@@H]5[C@@H](F)[C@@H](N)C6)c(CO)nc34)c(Cl)c2n1` [Example 144, {6-[(1R,2S,3S,5S)-3-amino-2-fluoro-8-azabicyclo[3.2.1]octan-8-yl]-3-[5-chloro-3-(propan-2-yloxy)quinoxalin-6-yl]-1H-pyrazolo[3,4-b]pyrazin-5-yl}methanol] as the compound, how does the pIC50 read?
A: Its pIC50 is 7.55.

Q: `Cc1nc2c(-c3ccc4nn(C(C)C)c(C#N)c4c3Cl)n[nH]c2nc1N1[C@H]2CC[C@@H]1[C@@H](F)[C@@H](N)C2` [Example 145, 5-{6-[(1R,2S,3S,5S)-3-amino-2-fluoro-8-azabicyclo[3.2.1]octan-8-yl]-5-methyl-1H-pyrazolo[3,4-b]pyrazin-3-yl}-4-chloro-2-(propan-2-yl)-2H-indazole-3-carbonitrile, hydrochloride] was tested. Which pIC50 did it give?
A: The pIC50 was 7.44.

Q: `N[C@H]1C[C@@H]2CC[C@H]([C@H]1F)N2c1nc2[nH]nc(-c3ccc4ncc(N5CCOCC5)nc4c3Cl)c2nc1CO` [Example 147, {6-[(1R,2S,3S,5S)-3-amino-2-fluoro-8-azabicyclo[3.2.1]octan-8-yl]-3-[5-chloro-3-(morpholin-4-yl)quinoxalin-6-yl] 1H-pyrazolo[3,4-b]pyrazin-5-yl}methanol] was tested. Which pIC50 did it give?
A: The pIC50 was 7.85.

Q: `Cc1nc2c(-c3ccc4ncc(N5CCOCC5)nc4c3Cl)n[nH]c2nc1N1[C@H]2CC[C@@H]1[C@@H](F)[C@@H](N)C2` [Example 148, (1R,2S,3S,5S)-8-{3-[5-chloro-3-(morpholin-4-yl)quinoxalin-6-yl] 5-methyl-1H-pyrazolo[3,4-b]pyrazin-6-yl}-2-fluoro-8-azabicyclo[3.2.1]octan-3-amine] was tested. Which pIC50 did it give?
A: The pIC50 was 7.60.

Q: How did the pIC50 turn out when `CC(C)n1nc2ccc(-c3n[nH]c4nc(N5[C@H]6CC[C@@H]5[C@@H](F)[C@@H](N)C6)c(CO)nc34)c(Cl)c2c1C#N` [Example 149, 5-{6-[(1R,2S,3S,5S)-3-amino-2-fluoro-8-azabicyclo[3.2.1]octan-8-yl]-5-(hydroxymethyl)-1H-pyrazolo[3,4-b]pyrazin-3-yl}-4-chloro-2-(propan-2-yl)-2H-indazole-3-carbonitrile] was run?
A: The pIC50 was 7.85.

Q: How did the pIC50 turn out when `N[C@H]1C[C@@H]2CC[C@H]([C@H]1F)N2c1nc2[nH]nc(-c3ccc4ncc(N5CCC5)nc4c3Cl)c2nc1CO` [Example 150, {6-[(1R,2S,3S,5S)-3-amino-2-fluoro-8-azabicyclo[3.2.1]octan-8-yl]-3-[3-(azetidin-1-yl)-5-chloroquinoxalin-6-yl]-1H-pyrazolo[3,4-b]pyrazin-5-yl}methanol] was run?
A: The pIC50 was 7.82.

The compounds below were run on pERK in HCC827 cells (assay: Cellular pERK Inhibition Assay (phospho-p44/42 MAPK sandwich ELISA)). Settings: at 1 μM.
Assay type: cell-based
Method: Cellular pERK Inhibition Assay
HCC827 cells (ATCC, Manassas, USA) were seeded into 96-well plates at a density of 1×10^5 cells/well in RPMI medium supplemented with 10% FBS and incubated 24 h. Compounds were diluted first in DMSO and then into serum-free medium, before being added to cells in triplicate to give a final concentration of 0.1% DMSO. Plates were incubated at 37° C. for 0.5 hours in a humidified atmosphere of 5% CO2 in air.
Following compound treatment, medium was removed and cells were lysed by adding 50 μL of lysis buffer (Cell Signalling Technology, Beverly, USA) to each well. Plates were then incubated at room temperature for 25 minutes with shaking. pERK levels were measured in lysates using the PathScan® phospho-p44/42 MAPK (Thr202/Tyr204) sandwich ELISA (Cell Signalling Technology, Beverly, USA) as per kit instructions. Briefly, 50 μL of cell lysate was added to 50 μL of ELISA sample diluent in a 96-well ELISA plate and incubated overnight at 4° C. Following washing, 100 μL of detection antibody was added per well and the plates incubated for 1 hour at 37° C. […] Plates were read at 450 nm on a SpectraMax Gemini reader (Molecular Devices, Uckfield, UK).
The average signal from blank wells (no cells added) was subtracted from the signals from each sample well. Levels of pERK were then expressed as “percent of control”, using DMSO treated samples as control. […]

Q: `COc1cc2c(Cl)c(-c3c[nH]c4nc(N5[C@@H]6CC[C@H]5C[C@@H](N)C6)cnc34)ccc2nc1C` [Example 42, endo-8-[7-(5-chloro-3-methoxy-2-methylquinolin-6-yl)-5H-pyrrolo[2,3-b]pyrazin-3-yl]-8-azabicyclo[3.2.1]octan-3-amine] was tested. Which “Cellular pERK assay (percent at stated concentration)” value did it give?
A: The value was 24% at 1 μM.

Same assay, conditions: at 10 uM

Q: `COc1ccc2ccc(-c3c[nH]c4nc(N5[C@@H]6CC[C@H]5C[C@@H](N)C6)cnc34)c(Cl)c2n1` [Example 27, endo-8-[7-(8-chloro-2-methoxyquinolin-7-yl)-5H-pyrrolo[2,3-b]pyrazin-3-yl]-8-azabicyclo[3.2.1]octan-3-amine, hydrochloride salt] was tested. Which “Cellular pERK assay (percent at stated concentration)” value did it give?
A: The value was 53% at 10 uM.

Reference: patent US11466016B2, “Pharmaceutical compounds” (priority 2018, dated 2022)
